This experiment concerns ApoB secretion, HepG2 cells. In words: Quantification of the secretion of ApoB (HepG2 cells, immunoprecipitation, scintillation counting). The following applies: Homo sapiens, 24 hours of incubation. In kind it is cell-based. The protocol:
C.1. Quantification of the Secretion of ApoB
HepG2 cells were cultured in 24-well plates in Minimal Essential Medium Rega 3 containing 10% fetal calf serum. Rega 3 has the following composition: CaCl2 (264 μg/ml), KCl (400 μg/ml), MgSO4.7H2O (200 μg/ml), NaCl (6800 μg/ml), NaHCO3 (850 μg/ml), NaH2PO4.H2O (158 μg/ml), D-glucose (1000 μg/ml), phenol red (10 μg/ml), L-alanine (8.9 μg/ml), L-arginine HCl (12 μg/ml), L-asparagine.H2O (15 μg/ml), L-aspartic acid (13.3 μg/ml), L-cystine (24 μg/ml), L-glutamic acid (14.7 μg/ml), glycine (7.5 μg/ml), L-histidine.HCl .H2O (42 μg/ml), L-isoleucine (52 μg/ml), L-leucine (52 μg/ml), L-lysine.HCl (72.5 μg/ml), L-methionine (15 μg/ml), L-phenylalanine (32 μg/ml), L-proline (11.5 μg/ml), L-serine (10.5 μg/ml), L-threonine (48 μg/ml), L-tryptophan (10 μg/ml), L-tyrosine (36 μg/ml), L-valine (46 μg/ml), D-Ca pantothenate (1 μg/ml), choline chloride (1 μg/ml), folic acid (1 μg/ml), 1-enositol (2 μg/ml), nicotinamide (1 μg/ml), pyridoxal HCl (1 μg/ml), riboflavin (0.1 μg/ml) and thiamine HCl (1 μg/ml).
At 70% confluency, the medium was changed and the test compound or carrier (dimethylsulfoxide, 0.4% final concentration) was added. After 24 hours of incubation, the medium was transferred to Eppendorf tubes and cleared by centrifugation. A sheep antibody directed against either apo B was added to the supernatant and the mixture was kept at 8° C. for 24 hours. Then, rabbit anti-sheep antibody was added and the immune complex was allowed to precipitate for 24 hours at 8° C. The immunoprecipitate was pelleted by centrifugation for 25 minutes at 1320 g and washed twice with a buffer containing 40 mM 4-morpholinepropanesulfonic acid, 40 mM NaH2PO4, 100 mM NaF, 0.2 mM dithiothreitol, 5 mM ethylenediamine tetraacetic acid, 5 mM ethylenebis (oxyethylenenitrilo) tetraacetic acid, 1% Triton-X-100, 0.5% sodium deoxycholate, 0.1% sodium dodecylsulphate, 0.2 μM leupeptin and 0.2 μM phenylmethylsulphonylfluoride. Radioactivity in the pellet was quantified by liquid scintillation counting.
Resulting IC50 values are enumerated in Table C.1 for a number of compounds No. 1 to No. 123.

Structures can show the parent of a compound that is named as a salt. Where only a bound is given, the exact number is not on record here.

For the molecule `CCNC(=O)C(c1ccccc1)C1CCN(c2ccc(NC(=O)c3ccccc3-c3ccccc3OC)cc2)CC1` (centres unmarked) [Co. No. 135], where the note is “HepG2, 24 h”, the half-maximal inhibitory concentration (IC50) is 149 nM.

As to `COC(=O)C(c1ccccc1)N1CCN(c2ccc(NC(=O)c3ccccc3-c3ccc(Cl)cc3)cc2)CC1` (centres unmarked) [Co. No. 159], the IC50 (HepG2, 24 h) was 106 nM.

Regarding `CCc1ccc(-c2c(C)cccc2C(=O)Nc2ccc(N3CCC(C(C(=O)OC)c4ccccc4)CC3)cc2)cc1` (centres unmarked) [Co. No. 234], the IC50 (HepG2, 24 h) is less than 30 nM.

Molecule `O=C(Nc1ccc(N2CCC(C(C(=O)Nc3ccccc3)c3ccccc3)CC2)cc1)c1ccccc1-c1ccc(Cl)cc1` (centres unmarked) [Co. No. 113] gave an IC50 (HepG2, 24 h) of 115 nM.

With `CCCNC(=O)C(c1ccccc1)C1CCN(c2ccc(NC(=O)c3ccccc3-c3ccc(Cl)cc3)cc2)CC1` (centres unmarked) [Co. No. 68], the IC50 (HepG2, 24 h) is no more than 30 nM.

`CC(C)OC(=O)C(c1ccccc1)N1CCC(c2ccc(NC(=O)c3ccccc3-c3ccc(C(F)(F)F)cc3)cc2)CC1` (centres unmarked) [Co. No. 223] showed an IC50 (HepG2, 24 h) of 370 nM.

In turn, `COC(=O)C(c1ccccc1)N1CCN(c2ccc(NC(=O)c3ccccc3-c3ccc(C(F)(F)F)cc3)c(F)c2)CC1` (centres unmarked) [Co. No. 212] showed an IC50 (HepG2, 24 h) of less than 30 nM.

Molecule `CCCNC(=O)C(c1ccccc1)C1CCN(c2ccc(NC(=O)c3ccccc3-c3cc(Cl)cc(Cl)c3)cc2)CC1` (centres unmarked) [Co. No. 97, 3′,5′-dichloro-N-[4-[4-[2-oxo-1-phenyl-2-(propylamino)ethyl]-1-piperidinyl]phenyl]-[1,1′-biphenyl]-2-carboxamide] showed an IC50 (HepG2, 24 h) of 234 nM.

Consider `CC(C)NC(=O)C(c1ccccc1)C1CCN(c2ccc(NC(=O)c3cccc4c3Cc3ccccc3-4)cc2)CC1` (centres unmarked) [Co. No. 23], for which the IC50 (HepG2, 24 h) was no less than 3000 nM.

For the setting “HepG2, 24 h”, `O=C(Nc1ccc(N2CCC(C(C(=O)Nc3ccccc3)c3ccccc3)CC2)cc1)c1ccccc1-c1cc(Cl)cc(Cl)c1` (centres unmarked) [Co. No. 106] showed an IC50 of 251 nM.

As to `Nc1cccc(-c2ccccc2C(=O)Nc2ccc(N3CCC(C(C(=O)Nc4ccccc4)c4ccccc4)CC3)cc2)c1` (centres unmarked) [Co. No. 111], the concentration for half-maximal inhibition (IC50) (HepG2, 24 h) is 221 nM.

Regarding `O=C(Nc1ccc(N2CCC(C(C(=O)NCc3ccccc3)c3ccccc3)CC2)cc1)c1ccccc1-c1ccc(F)cc1` (centres unmarked) [Co. No. 102], the IC50 (HepG2, 24 h) was 18.5 nM.

Consider `CCCNC(=O)C(c1ccccc1)C1CCN(c2ccc(NC(=O)c3ccccc3-c3cccc(C(F)(F)F)c3)cc2)CC1` (centres unmarked) [Co. No. 48], for which inhibition (HepG2, 24 h) was half-maximal at 634 nM (IC50).

In the case of `CCNC(=O)C(c1ccccc1)N1CCC(c2ccc(NC(=O)c3ccccc3-c3ccc(C(F)(F)F)cc3)cc2)CC1` (centres unmarked) [Co. No. 69, N-[4-[1-[2-(ethylamino)-2-oxo-1-phenylethyl]-4-piperidinyl]phenyl]-4′-(trifluoromethyl)-[1,1′-biphenyl]-2-carboxamide], the midpoint of inhibition (HepG2, 24 h), the IC50, lay at 8.89 nM.

Regarding `O=C(Nc1ccc(C2CCN(C(C(=O)NCc3ccccn3)c3ccccc3)CC2)cc1)c1ccccc1-c1ccc(C(F)(F)F)cc1` (centres unmarked) [Co. No. 77], where the note is “HepG2, 24 h”, the IC50 is no more than 30 nM.

In turn, `O=C(Nc1ccc(C2CCN(C(C(=O)NCc3cccnc3)c3ccccc3)CC2)cc1)c1ccccc1-c1ccc(C(F)(F)F)cc1` (centres unmarked) [Co. No. 76] gave an IC50 (HepG2, 24 h) of 51.8 nM.

`O=C(Nc1ccc(N2CCC(C(C(=O)OCc3ccccc3)c3ccccc3)CC2)cc1)c1ccccc1-c1ccccc1` (centres unmarked) [Co. No. 177] showed an IC50 (HepG2, 24 h) of 261 nM.

The molecule `COC(=O)C(c1ccccc1)C1CCN(c2ccc(NC(=O)c3cccc(C)c3-c3ccc(CC(C)C)cc3)cc2)CC1` (centres unmarked) [Co. No. 236] gave an IC50 (HepG2, 24 h) of 21.7 nM.

In turn, `COC(=O)C(c1ccccc1)N1CCN(c2ccc(NC(=O)c3cc(OC)c(OC)cc3-c3ccc(C(F)(F)F)cc3)cc2)CC1` (centres unmarked) [Co. No. 193] had an IC50 (HepG2, 24 h) of 235 nM.

With `COC(=O)C(c1ccccc1)N1CCN(c2ccc(NC(=O)c3cc(OC)ccc3-c3ccc(C(F)(F)F)cc3)cc2)CC1` (centres unmarked) [Co. No. 186], under “HepG2, 24 h”, the IC50 was 200 nM.

On to `COC(=O)C(c1ccccc1)N1CCCN(c2ccc(NC(=O)c3ccccc3-c3ccc(C(F)(F)F)cc3)cc2)CC1` (centres unmarked) [Co. No. 119], for which the IC50 (HepG2, 24 h) is 175 nM.

Molecule `O=C(Nc1ccc(C2CCN(C(C(=O)NCc3ccccc3)c3ccccc3)CC2)cc1)c1ccccc1-c1ccccc1` (centres unmarked) [Co. No. 161] showed an IC50 (HepG2, 24 h) of 68.9 nM.

Molecule `O=C(Nc1ccc(N2CCC(C(C(=O)Nc3ccccc3)c3ccccc3)CC2)cc1)c1ccccc1-c1ccccc1C(F)(F)F` (centres unmarked) [Co. No. 109] showed an IC50 (HepG2, 24 h) of 1470 nM.

`CCCNC(=O)C(c1ccccc1)C1CCN(c2ccc(NC(=O)c3ccccc3-c3ccc(C(C)(C)C)cc3)cc2)CC1` (centres unmarked) [Co. No. 132] gave an IC50 (HepG2, 24 h) of 50.2 nM.

For the setting “HepG2, 24 h”, `O=C(Nc1ccc(N2CCC(C(C(=O)OCCCc3ccccc3)c3ccccc3)CC2)cc1)c1ccccc1-c1ccc(C(F)(F)F)cc1` (centres unmarked) [Co. No. 246] had an IC50 of 173 nM.

Consider `COC(=O)C(c1ccc(Cl)cc1)N1CCN(c2ccc(NC(=O)c3ccccc3-c3ccc(C(F)(F)F)cc3)cc2)CC1` (centres unmarked) [Co. No. 263], for which the IC50 (HepG2, 24 h) was 279 nM.

`CCNC(=O)C(c1ccccc1)C1CCN(c2ccc(NC(=O)c3ccccc3-c3ccc4ccccc4c3)cc2)CC1` (centres unmarked) [Co. No. 95] showed an IC50 (HepG2, 24 h) of no more than 30 nM.

Consider `O=C(Nc1ccc(C2=CCN(C(C(=O)OCc3ccccc3)c3ccccc3)CC2)cc1)c1ccccc1-c1ccc(C(F)(F)F)cc1` (centres unmarked) [Co. No. 168], for which half-maximal inhibition (HepG2, 24 h) (IC50) was put at 132 nM.

`O=C(Nc1ccc(N2CCC(C(C(=O)Nc3ccccc3)c3ccccc3)CC2)cc1)c1ccccc1-c1ccc(C(F)(F)F)cc1` (centres unmarked) [Co. No. 36] showed an IC50 (HepG2, 24 h) of no more than 30 nM.

`CCNC(=O)C(c1ccccc1)N1CCCN(c2ccc(NC(=O)c3ccccc3-c3ccc(C(F)(F)F)cc3)cc2)CC1` (centres unmarked) [Co. No. 122] gave an IC50 (HepG2, 24 h) of 414 nM.

As for `COC(=O)C(c1ccccc1)N1CCN(c2ccc(NC(=O)c3ccc(F)cc3-c3ccc(C(F)(F)F)cc3)cc2)CC1` (centres unmarked) [Co. No. 185], the IC50 (HepG2, 24 h) was 48.8 nM.

In the case of `CCNC(=O)C(c1ccccc1)N1CCN(c2ccc(NC(=O)c3ccccc3-c3ccc(C(F)(F)F)cc3)cc2C)CC1` (centres unmarked) [Co. No. 218], the IC50 (HepG2, 24 h) was less than 30 nM.

Under “HepG2, 24 h”, `COC(=O)C(c1ccccc1Cl)N1CCN(c2ccc(NC(=O)c3ccccc3-c3ccc(C(F)(F)F)cc3)cc2)CC1` (centres unmarked) [Co. No. 258] had an IC50 of 139 nM.

In the case of `CCCCNC(=O)C(c1ccccc1)N1CCC(c2ccc(NC(=O)c3ccccc3-c3ccc(C(F)(F)F)cc3)cc2)CC1` (centres unmarked) [Co. No. 73], under “HepG2, 24 h”, the IC50 was 6.08 nM.

In the case of `O=C(Nc1ccc(N2CCC(C(C(=O)NCc3ccccc3)c3ccccc3)CC2)cc1)c1ccccc1Oc1ccccc1` (centres unmarked) [Co. No. 9], the IC50 (HepG2, 24 h) is 221 nM.

Turning to `CCCNC(=O)C(c1ccccc1)C1CCN(c2ccc(NC(=O)c3ccccc3-c3ccc(C(F)(F)F)cc3)cc2)CC1` (centres unmarked) [Co. No. 38, N-[4-[4-[2-oxo-1-phenyl-2-(propylamino)ethyl]-1-piperidinyl]phenyl]-4′-(trifluoromethyl)-[1,1′-biphenyl]-2-carboxamide trifluoroacetate (1:1)], the half-maximal inhibitory concentration (IC50) was 6.62 nM.

`COC(=O)C(c1ccccc1)N1CCN(c2ccc(NC(=O)c3ccccc3-c3ccc(C(F)(F)F)cc3)cc2C(F)(F)F)CC1` (centres unmarked) [Co. No. 210] gave an IC50 (HepG2, 24 h) of 483 nM.

Molecule `CCNC(=O)C(c1ccc(F)cc1)C1CCN(c2ccc(NC(=O)c3ccccc3-c3ccc(C(C)(C)C)cc3)cc2)CC1` (centres unmarked) [Co. No. 257] had an IC50 (HepG2, 24 h) of 13.9 nM.

`C=CCOC(=O)C(c1ccccc1)N1CCC(c2ccc(NC(=O)c3ccccc3-c3ccc(C(F)(F)F)cc3)cc2)CC1` (centres unmarked) [Co. No. 152] showed an IC50 (HepG2, 24 h) of 94.4 nM.

For the setting “HepG2, 24 h”, `COC(=O)C(c1ccccc1)N1CCN(c2ccc(NC(=O)c3c(C)cccc3-c3ccc(C(F)(F)F)cc3)cc2)CC1` (centres unmarked) [Co. No. 188] gave an IC50 of 10 nM.

The molecule `CCOC(=O)C(c1ccccc1)C1CCN(c2ccc(NC(=O)c3ccccc3-c3ccc(C(F)(F)F)cc3)cc2)CC1` (centres unmarked) [Co. No. 243] showed an IC50 (HepG2, 24 h) of less than 30 nM.

For `O=C(Nc1ccc(C2CCN(C(C(=O)NCc3ccccc3)c3ccccc3)CC2)cc1)c1ccccc1-c1ccc(C(F)(F)F)cc1` (centres unmarked) [Co. No. 79], the IC50 (HepG2, 24 h) was 50 nM.

Consider `C=CCOC(=O)C(c1ccccc1)C1CCN(c2ccc(NC(=O)c3ccccc3-c3ccccc3)cc2)CC1` (centres unmarked) [Co. No. 179], for which, where the note is “HepG2, 24 h”, the midpoint of inhibition, the IC50, lay at 403 nM.

For the molecule `CCCNC(=O)C(c1ccccc1)N1CCC(c2ccc(NC(=O)c3ccccc3-c3ccc(C(F)(F)F)cc3)cc2)CC1` (centres unmarked) [Co. No. 70], the IC50 (HepG2, 24 h) was no more than 30 nM.

`O=C(Nc1ccc(N2CCN(C(C(=O)Oc3ccccc3)c3ccccc3)CC2)cc1)c1ccccc1-c1ccccc1` (centres unmarked) [Co. No. 150] showed an IC50 (HepG2, 24 h) of 173 nM.

With `CCNC(=O)C(c1ccccc1)C1CCN(c2ccc(NC(=O)c3ccccc3-c3ccc(Cl)c(Cl)c3)cc2)CC1` (centres unmarked) [Co. No. 88], the IC50 (HepG2, 24 h) was no more than 30 nM.

Molecule `CC(C)=CCOC(=O)C(c1ccccc1)N1CCC(c2ccc(NC(=O)c3ccccc3-c3ccc(C(F)(F)F)cc3)cc2)CC1` (centres unmarked) [Co. No. 220] gave an IC50 (HepG2, 24 h) of less than 30 nM.

One may read the IC50 as the concentration that gives 50% inhibition. Read a high IC50 as a need for much substance.

For the origin of these results see patent US8354402B2, “Polyarylcarboxamides useful as lipid lowering agents” (Janssen Pharmaceutica N.V., priority 2000, dated 2013).
